Measured values reported in the supplement of paper PMC10307832.

Experiments:
Test in all cases: relative viability (nuclei count vs DMSO), 5 days (fraction); higher = more cells survive
Pifithrin_alpha = compound: CC1=CC=C(C=C1)C(=O)CN2C3=C(CCCC3)SC2=N [Pifithrin_alpha]
Method in brief: (§1)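 In 1536-well plates, lung cancer cell lines rested overnight at 37 °C before five library-drug doses (not always all listed), √10 apart, were pinned onto vehicle-anchored plates. Nuclei were counted with MetaXpress from 4× Hoechst images taken after 5 days without medium change. Viability compares treated-well with vehicle-well nuclei as a median over plates, and plates needed control CV below 25% plus at least one doubling to pass.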

Axitinib = compound: CNC(=O)c1ccccc1Sc1ccc2c(/C=C/c3ccccn3)n[nH]c2c1 [Axitinib]
Method in brief: as §1

Bemcentinib = compound: Nc1nc(Nc2ccc3c(c2)CC[C@@H](N2CCCC2)CC3)nn1-c1cc2c(nn1)-c1ccccc1CCC2 [Bemcentinib]
Method in brief: as §1

[1] = compound: CC1=CC=C(C=C1)C(=O)CN2C3=C(CCCC3)SC2=N [Pifithrin_alpha] + COc1cc2c(Oc3ccc(NC(=O)C4(C(=O)Nc5ccc(F)cc5)CC4)cc3F)ccnc2cc1OCCCN1CCOCC1 [Foretinib] (partner 0.25 µM)
Method in brief: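 Five library-drug doses in √10 steps were combined with a fixed anchor-drug dose, or a single drug was given alone, by pin tool to lung cancer cell lines in 1536-well plates the day after seeding. Nuclei were stained and counted after 5 days. Relative viability is the nuclei count in treated wells over that in vehicle wells, taken as the median of duplicate plates.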

Row | Cell Line | relative viability (Pifithrin_alpha; 1 µM) | relative viability (Pifithrin_alpha; 3.162 µM) | relative viability (Pifithrin_alpha; 10 µM) | relative viability (Pifithrin_alpha; 100 µM) | relative viability (Axitinib; 0.005 µM) | relative viability (Axitinib; 0.01581 µM) | relative viability (Axitinib; 0.05 µM) | relative viability (Axitinib; 0.1581 µM) | relative viability (Axitinib; 0.5 µM) | relative viability (Bemcentinib; 0.04 µM) | relative viability (Bemcentinib; 0.1265 µM) | relative viability (Bemcentinib; 0.4 µM) | relative viability (Bemcentinib; 1.265 µM) | relative viability (Bemcentinib; 4 µM) | relative viability ([1]; first compound 1 µM) | relative viability ([1]; first compound 3.162 µM) | relative viability ([1]; first compound 10 µM) | relative viability ([1]; first compound 31.62 µM) | relative viability ([1]; first compound 100 µM) | relative viability (Pifithrin_alpha; 31.62 µM)
1 | LU99A | 0.941 | 0.89 | 0.903 | 0.869 | 0.903 | 1.02 | 1.03 | 0.883 | 0.904 | 0.903 | 1.02 | 0.98 | 1.02 | 1.02 | 0.772 | 0.866 | 0.861 | 0.398 | 0.776 | –
2 | NCI-H1793 | 0.734 | 0.817 | 0.838 | 0.874 | 1.06 | 0.833 | 0.889 | 0.819 | 0.647 | 0.834 | 1.05 | 0.882 | 0.686 | 0.999 | – | 0.539 | 0.61 | 0.642 | 0.483 | 0.823
3 | NCI-H1623 | 0.905 | 0.924 | 0.834 | 0.803 | 1.12 | 0.945 | 0.884 | 1.02 | 0.984 | 0.956 | 0.935 | 0.971 | 1.03 | 0.929 | 0.825 | 0.811 | 0.759 | 0.628 | 0.669 | 0.677
4 | NCI-H460 | 1.06 | 0.949 | 0.872 | 0.837 | 0.976 | 0.981 | 1.05 | 1.01 | 1.1 | 0.973 | 1.1 | 1.06 | 1.07 | 1.01 | 1.06 | 0.974 | 0.933 | 0.492 | 0.631 | 0.592
5 | SK-LU-1 | 1.08 | 1.16 | 1.21 | 1.21 | 1.06 | 1.12 | 0.946 | 1.04 | 1.15 | 1.04 | 1.19 | 1.13 | 1.08 | 1.12 | 0.884 | 0.95 | 0.84 | – | 0.858 | 0.805
6 | HARA | 0.906 | 0.783 | 0.916 | 0.853 | 1.05 | 0.79 | 0.887 | 0.756 | 1.12 | 0.899 | 1.28 | 0.995 | 0.82 | 0.951 | – | 1.08 | 0.978 | – | 0.656 | 0.65
7 | ABC-1 | 0.523 | 0.85 | 0.788 | 0.731 | 0.945 | 0.863 | 0.985 | 0.812 | 1.08 | 0.78 | 1.14 | 1.16 | 0.865 | 0.984 | 1.16 | 1.11 | 1.03 | 0.942 | 0.724 | 0.55
